We go through three compounds from patent US8852240B2, “Methods and compositions for fostering and preserving bone growth” (Kieran Murphy, LLC, priority 2004, dated 2014).

The test system of assay [1] is marrow cavity of rat femur. Nature of the assay: Calcein labeling of mid-shaft sections of rat femur after bone marrow ablation (BMX). The note with it: for protection of bone formed in the marrow cavity (calcein fluorescent signal): BMX + PTH 21 days, then anti-resorptive agent for the next 63 days (days 22-84), FIG. 7A. Format: in vivo. On the procedure: FIG. 1A is a section of the mid-shaft of a rat femur following, respectively, 21 and 84 days of treatment. The groups include: (a) control—no bone marrow ablation (“BMX”) or anabolic agent, (b) BMX—bone marrow ablation alone; and (c) BMX+PTH−bone marrow ablation plus treatment for either 21 or 84 days with PTH 1-34 NH2. In addition, the rats were injected with calcein, a fluorescent dye, on 9, 8, 2 and 1 day prior to sacrificing the animals. Calcein becomes incorporated into bone and serves as a measure of bone growth and mineralization;
FIG. 6A illustrates the degree of persistent bone growth achieved after 84 days with the administration of a biocompatible material, in this instance Cementek (Cementek LV, Non-stoichiometric hydroxyapatite prepared from the reaction between the acid and base calcium phosphates in the presence of an aqueous solution. Teknimid, 65500 VIV en Biggore, France) or Pepgen-15 (a high purity anorganic bovine graft material, radiopaque, peptide-enhanced to mimic autogeneous bone. Dentsply Friadent CeraMed Lakewood, Colo.). All samples were taken from femurs which had BMX performed on them. The groups included: BMX followed by 84 days anabolic agent or PBS (buffer) presented in the first row or BMX followed by insertion of a slurry of biocompatible matrix (Cementek or Pepgen-15) with our without concomitant PTH treatment for 84 days;
FIGS. 7A and 7B illustrate the effect attributable to administration of the anti-resorption agent, Alendronate, in preserving bony tissue formed according to the method of the invention. The following treatment modalities are included: (a) BMX+PTH 1-34 NH2 for 21 days+PBS (buffer) during days 22-84; (b) BMX+PTH 1-34 NH2 for 21 days+calcitonin during days 22-84; (c) BMX+PTH 1-34 NH2 for 21 days+Alendronate during days 22-84; and (d) BMX+PTH 1-34 NH2 during days 1-84.

For assay [2], the system named is femoral shaft marrow cavity. Nature of the assay: Micro-CT analysis of the femoral shaft marrow cavity after bone marrow ablation (BMX). Format: in vivo, rat. The note with it: for protection of bone formed in the marrow cavity (Micro-CT): BMX + PTH 21 days, then anti-resorptive drug for an additional 63 days, FIG. 7B. From the text:
FIG. 1B depicts the results from the same groups of animals using the imaging technique known as Micro-CT. This technique provides a high resolution analysis of the femoral shaft marrow cavity from the Control, BMX, and the BMX+PTH 1-34 NH2 of rats treated with PBS (buffer) or PTH for 21 or 84 days, respectively;
FIG. 6B depicts the results obtained from the same groups of animals reported in FIG. 6A using the Micro-CT imaging technique. This imaging technique provides a high resolution analysis of the femoral shaft marrow cavity from the BMX+PBS or PBX+PTH treatments, compared with femurs that had biocompatible materials (Cementek or Pepgen-15) injected into the bone marrow cavity following the step (e.g., ablation) resulting in the inducement of increased osteoblast activity; and
FIG. 7B depicts the results from the same groups of animals reported in FIG. 7A using the Micro-CT imaging technique, which provides a high resolution analysis of the femoral shaft marrow cavity.

Entries after “also recorded” stand apart in the source; their conditions may differ.

`NCCCC(O)(P(=O)(O)O)P(=O)(O)O` [alendronate]: the figures for the “protection of bone formed in the marrow cavity (calcein fluorescent signal)” value in assay [1] and in assay [1] (listed as Alendronate) were “protect the bone” and “greater protective effect”, respectively. In addition, the “protection of bone formed in the marrow cavity (Micro-CT)” value in assay [2] was “to a greater extent”.

Turning to PTH 1-34 NH2, the “bone formation in femur mid-shaft (calcein)” value in assay [1] (BMX + PTH for 21 days, day 21, FIG. 1A) is “leads to additional bone formation”. In assay [1] (BMX + PTH for 84 days, day 84, FIG. 1A / 7A), the “bone / fluorescent label remaining in ablated marrow cavity (calcein)” value is reported as “resorption of a substantial portion of the bone that was present at day 21; also recorded: contains a minimum amount of fluorescent label; also recorded: no longer contains fluorescent labels”. The “bone formation in femurs receiving a biocompatible matrix material (calcein)” value in assay [1] (BMX + biocompatible matrix + PTH 84 days versus buffer (PBS), FIG. 6A) is listed as “markedly greater than for buffer (PBS) alone”. Moreover, the “bone in femoral shaft marrow cavity (Micro-CT)” value in assay [2] (BMX + PTH 1-34 NH2 + biocompatible material versus biocompatible material alone, 84 days, FIG. 6B) is listed as “better results than the use of biocompatible material alone”. The “newly formed bone in the marrow cavity (Micro-CT)” value in assay [2] (BMX + PTH for 21 days, day 21, FIG. 1B) is on record as “further augmented”. In addition, the “bone in marrow cavity of femur mid-shaft/diaphysis (Micro-CT)” value in assay [2] (BMX + PTH for 84 days, day 84, FIG. 1B / 7B) is on record as “no longer contains substantial amounts of bone; also recorded: no longer contains radio-dense bone”.

With calcitonin, the “protection of bone formed in the marrow cavity (calcein fluorescent signal)” value in assay [1] is “protected; also recorded: protect the bone”. In addition, the “protection of bone formed in the marrow cavity (Micro-CT)” value in assay [2] is recorded as “protects the bone”.
